In patent US4914191A, “Anthracycline derivatives having cytostatic activity” (Behringwerke Aktiengesellschaft, priority 1987, dated 1990):
In brackets after ≈: the same amount, converted by molar mass. Read-outs that look alike come from different tables or passages of the source.

Key:
L1210 leukemia cells = assay: cross-resistance in vitro, MTT assay on sensitive and adriamycin (doxorubicin)-resistant L1210 leukemia cells; format: cell-based, mouse; conditions: 3d incubation
Procedure: L1210, A 549 or HT 29 in the exponential phase of growth are incubated in a cell density of 5×10^3 cells/ml in RPMI 1640 in a 96-well microtiter plate for 72 hours with various concentrations of the test substance at 37° C., 5% CO2 and 95% relative humidity. Control experiments contain merely growth medium in place of the test substance. Each test substance and the control are determined in quadruplicate. After incubation for 65 hours, 50 μl of MTT solution (2.5 mg/ml in phosphate-buffered saline) are added. In the presence of live cells, MTT is reduced to a dark-red insoluble formazan dyestuff. This reaction is complete after 7 hours (L1210 cells) or after 24 hours (A 549, HT 29 cells), and the supernatant medium is carefully removed by aspiration. The insoluble dyestuff is dissolved by addition of 100 μl of DMSO, and the extinction of the resulting solution at a wavelength of 492 nm is then measured for each well in a Flow 340 CC multiscan photometer.
The ratio of the extinctions of treated and untreated cells yields a dose-effect plot from which the concentration which just kills 50% of the cells (IC50) can be read off. The coefficient of variation for repeat tests is less than 15%.
The cross-resistance between the particular test compound and doxorubicin is determined using the MTT assay (for method, see above) on sensitive and resistant L1210 leukemia cells.
The resistant cell line was established by incubation of a sensitive subline with stepwise increasing concentrations of the reference compound.
The IC50 of the test compound on the resistant subline relative to the IC50 of the sensitive subline yields the degree of resistance both for the test compound (DR(T)) and for the reference compound (DR(R)) in accordance with the formula [formula]
In addition, the degree of cross-resistance (DCR) for the test compound is calculated in accordance with the formula [formula]
In the case where the loss of activity of the test compound on the resistant line related to the sensitive line is greater than that of the reference compound, a degree of cross-resistance of more than 100% is possible.

[1] = approximative toxicity, intraperitoneal (LD50); conditions: in vivo, ip; one intraperitoneal administration; read-out: Approximative toxicity LD50, 1xip
From the text: *3xip,q3d: three intraperitoneal administrations with an interval of thre
1xip: one intraperitoneal administration

[2] = test system: L1210 mouse leukemia cells; assay: formation of colonies of L1210 leukemia cells in soft agar; format: cell-based; conditions: Mus musculus
Procedure: The cytostatic activity of the compounds according to the invention was tested using L1210 mouse leukemia cells. This made use of the formation of colonies of L1210 leukemia cells in agar plates. This method is used to detect the effect of the test substances on the growth behavior of the cells over 1 hour or over several generations. With a cell cycle lasting 10-12 hours, this means that about 14 consecutive generations are observed in a test lasting 7 days. In this test, the substances having cytostatic activity according to the invention bring about a reduction in the number of colonies to be observed by comparison with an untreated control sample.
500 leukemia cells per plate were incubated with various concentrations of the test substance at 37° C. for 1 hour. These cells were then washed twice with McCoy5A medium and finally, after addition of 0.3% agar, poured into Petri dishes. Controls were incubated only with fresh medium. In some cases, in place of the incubation for one hour, various concentrations of test substances were mixed with the upper agar layer in order in this way to achieve continuous exposure of the cells throughout the incubation time. After the agar had solidified, the plates were incubated at 37° C. in an incubator for 7 days (5% by vol. CO2, 95% relative humidity). The number of colonies with a diameter of more than 60 μm which had formed was then counted. The results have been given as the number of colonies in treated agar plates as a percentage of the untreated control. The IC50 was determined, as a measure of the activity of the substance, from the dose-effect plot obtained in this way.

SMILES: CC[C@@]1(O)C[C@H](O[C@H]2C[C@H](N(C)C)[C@H](OC(C)=O)[C@H](C)O2)c2c(O)c3c(c(O)c2[C@H]1O)C(=O)c1cccc(O)c1C3=O [Compound 21, 7-O-(4'-O-Acetyl-α-L-rhodosaminyl)-β-rhodomycinone]
- Degree of cross-resistance to adriamycin (L1210 leukemia cells): 2.4%
- Degree of resistance of the cell (L1210 leukemia cells; IC50 resistant subline relative to IC50 sensitive line): 2.2
- LD50 [1]: 1 to 10 mg/kg
- IC50 ([2]; 168 h, continuous exposure, 7 days, L1210 colony formation, read-out: Long-term incubation IC50): 0.08 µg/mL (≈ 0.137 µM)
- IC50 ([2]; 1 h incubation, then 7 days colony formation, L1210, read-out: 1 h Incubation IC50): 0.7 µg/mL (≈ 1.2 µM)
